In patent US11142526B2, “Spirocycle compounds and methods of making and using same” (H. Lundbeck A/S, priority 2017, dated 2021):
Like-named read-outs stand apart in the source and are kept apart here.

Key:
[1] = molecular target: MAGL (Homo sapiens (Human), UniProt Q99685); assay: In vitro competitive activity-based protein profiling (gel-based, FP-Rh or HT-01 probe); assay type: biochemical
Method: In Vitro Competitive Activity-Based Protein Profiling.
Proteomes (human prefrontal cortex or cell membrane fractions) (50 μL, 1.0 mg/mL total protein concentration) were preincubated with varying concentrations of inhibitors at 37° C. After 30 min, FP-Rh or HT-01 (1.0 μL, 50 μM in DMSO) was added and the mixture was incubated for another 30 min at room temperature. Reactions were quenched with SDS loading buffer (15 μL—4×) and run on SDS-PAGE.

[2] = molecular target: MAGL (Mus musculus (Mouse), UniProt O35678); assay: In vitro competitive activity-based protein profiling, mouse brain proteome; assay type: biochemical; settings: for inhibition at 1 µM: mouse; for IC50: mouse brain
[3] = human PC3, read-out: MAGL % Inhibition at 1 μM (human PC3)
[4] = human PFC (prefrontal cortex), read-out: MAGL % Inhibition at 1 μM (human PFC)
[5] = human PFC (prefrontal cortex), read-out: MAGL Human PFC (IC50)
[6] = human PC3, read-out: MAGL Human PC3 (IC50)

Chain of MAGL (Homo sapiens (Human), UniProt Q99685) (Q99685 whole entry): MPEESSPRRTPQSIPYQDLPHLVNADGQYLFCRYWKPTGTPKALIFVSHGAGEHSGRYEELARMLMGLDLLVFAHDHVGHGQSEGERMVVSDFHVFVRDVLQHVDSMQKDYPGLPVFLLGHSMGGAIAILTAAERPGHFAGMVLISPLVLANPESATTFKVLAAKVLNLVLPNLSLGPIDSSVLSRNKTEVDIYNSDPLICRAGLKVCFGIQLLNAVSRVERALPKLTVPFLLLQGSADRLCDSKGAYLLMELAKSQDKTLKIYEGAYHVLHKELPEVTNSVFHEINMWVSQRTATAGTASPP
Chain of MAGL (Mus musculus (Mouse), UniProt O35678) (O35678 whole entry): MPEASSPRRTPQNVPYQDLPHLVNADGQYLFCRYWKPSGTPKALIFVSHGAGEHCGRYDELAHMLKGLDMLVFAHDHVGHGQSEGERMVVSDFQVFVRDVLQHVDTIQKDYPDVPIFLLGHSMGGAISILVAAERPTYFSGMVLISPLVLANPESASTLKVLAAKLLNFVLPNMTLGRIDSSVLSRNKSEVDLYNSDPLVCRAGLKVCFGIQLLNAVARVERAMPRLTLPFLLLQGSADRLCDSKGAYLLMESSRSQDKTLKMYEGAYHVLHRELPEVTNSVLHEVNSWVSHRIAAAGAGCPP

Row | SMILES | inhibition at 1 µM [1, 3] | inhibition at 1 µM [1, 4] | inhibition at 1 µM [2] | IC50 [1, 5] | IC50 [1, 6] | IC50 [2]
1 | CN(C(=O)C1(c2ncccn2)CC1)C1(C)CCN(C(=O)OC(C(F)(F)F)C(F)(F)F)CC1 [Example 177, 1,1,1,3,3,3-Hexafluoropropan-2-yl 4-methyl-4-(N-methyl-1-(pyrimidin-2-yl)cyclopropane-1-carboxamido) piperidine-1-carboxylate] | > 75% | > 75% | > 75% | – | – | –
2 | Cc1cc(C(F)(F)F)n2nc(C(=O)N3CCCC34CCN(C(=O)OC(C(F)(F)F)C(F)(F)F)CC4)c(Cl)c2n1 [Example 121, 1,1,1,3,3,3-Hexafluoropropan-2-yl 1-(3-chloro-5-methyl-7-(trifluoromethyl)pyrazolo[1,5-a]pyrimidine-2-carbonyl)-1,8-diazaspiro[4.5] decane-8-carboxylate] | – | > 75% | > 75% | < 100 nM | – | –
3 | Cc1c(C(=O)N2CCCC23CCN(C(=O)OC(C(F)(F)F)C(F)(F)F)CC3)c(Cl)nn1C [Example 125, 1,1,1,3,3,3-Hexafluoropropan-2-yl 1-(3-chloro-1,5-dimethyl-1H-pyrazole-4-carbonyl)-1,8-diazaspiro[4.5] decane-8-carboxylate] | – | > 75% | > 75% | – | < 100 nM | –
4 | CC(C)N1CCn2cc(C(=O)N(C)C3(C)CCN(C(=O)OC(C(F)(F)F)C(F)(F)F)CC3)nc2C1 [Example 22, 1,1,1,3,3,3-Hexafluoropropan-2-yl 4-(7-isopropyl-N-methyl-5,6,7,8-tetrahydroimidazo[1,2-a]pyrazine-2-carboxamido)-4-methylpiperidine-1-carboxylate] | > 75% | > 75% | > 75% | – | < 100 nM | –
5 | CCN(C(=O)c1cn2c(n1)CN(C1CC1)CC2)C1(C)CCN(C(=O)OC(C(F)(F)F)C(F)(F)F)CC1 [Example 178, 1,1,1,3,3,3-Hexafluoropropan-2-yl 4-(7-cyclopropyl-N-ethyl-5,6,7,8-tetrahydroimidazo [1,2-a]pyrazine-2-carboxamido)-4-methylpiperidine-1-carboxylate] | > 75% | > 75% | > 75% | – | – | –
6 | Cc1ccc2sc(C(=O)N3CCCC34CCN(C(=O)OC(C(F)(F)F)C(F)(F)F)CC4)cc2c1 [Example 17, 1,1,1,3,3,3-Hexafluoropropan-2-yl 1-(5-methylbenzo[b]thiophene-2-carbonyl)-1,8-diazaspiro[4.5]decane-8-carboxylate] | – | > 75% | > 75% | < 100 nM | – | –
7 | Cc1nc(C)c(C(=O)N2CCCC23CCN(C(=O)OC(C(F)(F)F)C(F)(F)F)CC3)o1 [Example 128, 1,1,1,3,3,3-Hexafluoropropan-2-yl 1-(2,4-dimethyloxazole-5-carbonyl)-1,8-diazaspiro[4.5] decane-8-carboxylate] | – | > 75% | > 75% | – | < 100 nM | –
8 | O=C(OC(C(F)(F)F)C(F)(F)F)N1CCC2(CCCN2C(=O)c2cc3nccc(C(F)(F)F)n3n2)CC1 [Example 164, 1,1,1,3,3,3-Hexafluoropropan-2-yl 1-(7-(trifluoromethyl)pyrazolo[1,5-a]pyrimidine-2-carbonyl)-1,8-diazaspiro[4.5] decane-8-carboxylate] | > 75% | > 75% | > 75% | – | – | –
9 | O=C(OC(C(F)(F)F)C(F)(F)F)N1CCC2(CCCN2C(=O)c2c(C3CC3)nc3cccnn23)CC1 [Example 3, 1,1,1,3,3,3-Hexafluoropropan-2-yl 1-(2-cyclopropylimidazo[1,2-b]pyridazine-3-carbonyl)-1,8-diazaspiro[4.5]decane-8-carboxylate] | > 75% | > 75% | > 75% | – | – | –
10 | O=C(OC(C(F)(F)F)C(F)(F)F)N1CCC2(CCCN2C(=O)c2ccc3ocnc3c2)CC1 [Example 87, 1,1,1,3,3.3-Hexafluoropropan-2-yl 1-(benzo[d]oxazole-5-carbonyl)-1,8-diazaspiro[4.5] decane-8-carboxylate] | – | – | > 75% | – | < 100 nM | < 100 nM
11 | CN(C(=O)c1cnc2cccnn12)C1(C)CCN(C(=O)OC(C(F)(F)F)C(F)(F)F)CC1 [Example 168, 1,1,1,3,3,3-Hexafluoropropan-2-yl 4-methyl-4-(N-methylimidazo[1,2-b]pyridazine-3-carboxamido) piperidine-1-carboxylate] | > 75% | > 75% | > 75% | – | < 100 nM | –
12 | O=C(OC(C(F)(F)F)C(F)(F)F)N1CCC2(CCCN2C(=O)Cc2ncccn2)CC1 [Example 195, 1,1,1,3,3,3-Hexafluoropropan-2-yl 1-(2-(pyrimidin-2-yl)acetyl)-1,8-diazaspiro[4.5] decane-8-carboxylate] | > 75% | > 75% | < 25% | – | – | –
13 | O=C(OC(C(F)(F)F)C(F)(F)F)N1CCC2(CCCN2C(=O)c2cncnc2)CC1 [Example 68, 1,1,1,3,3,3-Hexafluoropropan-2-yl 1-(pyrimidine-5-carbonyl)-1,8-diazaspiro[4.5] decane-8-carboxylate] | – | 25 to 75% | < 25% | – | – | –
14 | O=C(OC(C(F)(F)F)C(F)(F)F)N1CCC2(CCCN2C(=O)c2cc3n(n2)CCN(CC2CC2)C3)CC1 [Example 156, 1,1,1,3,3,3-Hexafluoropropan-2-yl 1-(5-(cyclopropylmethyl)-4,5,6,7-tetrahydropyrazolo [1,5-a]pyrazine-2-carbonyl)-1,8-diazaspiro[4.5] decane-8-carboxylate] | > 75% | > 75% | > 75% | – | < 100 nM | –
15 | CC1(NC(=O)c2nnc3n2CCN(C2CCC2)C3)CCN(C(=O)OC(C(F)(F)F)C(F)(F)F)CC1 [Example 205, 1,1,1,3,3,3-Hexafluoropropan-2-yl 4-(7-cyclobutyl-5,6,7,8-tetrahydro-[1,2,4]triazolo[4,3-a]pyrazine-3-carboxamido)-4-methylpiperidine-1-carboxylate] | > 75% | > 75% | > 75% | – | < 100 nM | –
16 | O=C(OC(C(F)(F)F)C(F)(F)F)N1CCC2(CCCN2C(=O)c2cn3nc(Cl)ccc3n2)CC1 [Example 163, 1,1,1,3,3,3-Hexafluoropropan-2-yl 1-(6-chloroimidazo[1,2-b]pyridazine-2-carbonyl)-1,8-diazaspiro[4.5] decane-8-carboxylate] | > 75% | – | > 75% | – | – | –
17 | CN(C(=O)c1nnc2n1CCNC2)C1(C)CCN(C(=O)OC(C(F)(F)F)C(F)(F)F)CC1 [Example 210, 1,1,1,3,3,3-Hexafluoropropan-2-yl 4-methyl-4-(N-methyl-5,6,7,8-tetrahydro-[1,2,4]triazolo [4,3-a]pyrazine-3-carboxamido) piperidine-1-carboxylate] | 25 to 75% | > 75% | 25 to 75% | – | – | –
18 | O=C(OC(C(F)(F)F)C(F)(F)F)N1CCC2(CCCN2C(=O)c2cc3nccc(C4CC4)n3n2)CC1 [Example 165, 1,1,1,3,3,3-Hexafluoropropan-2-yl 1-(7-cyclopropylpyrazolo [1,5-a]pyrimidine-2-carbonyl)-1,8-diazaspiro[4.5] decane-8-carboxylate] | > 75% | > 75% | > 75% | – | – | –
19 | CN(C(=O)C(F)(F)c1cnccn1)C1(C)CCN(C(=O)OC(C(F)(F)F)C(F)(F)F)CC1 [Example 198, 1,1,1,3,3,3-Hexafluoropropan-2-yl 4-(2,2-difluoro-N-methyl-2-(pyrazin-2-yl)acetamido)-4-methylpiperidine-1-carboxylate] | > 75% | > 75% | > 75% | – | – | –
20 | Cn1ccc(C(=O)N2CCCC23CCN(C(=O)OC(C(F)(F)F)C(F)(F)F)CC3)n1 [Example 79, 1,1,1,3,3,3-Hexafluoropropan-2-yl 1-(1-methyl-1H-pyrazole-3-carbonyl)-1,8-diazaspiro[4.5] decane-8-carboxylate] | – | – | > 75% | – | < 100 nM | 100 to 1000 nM
21 | O=C(OC(C(F)(F)F)C(F)(F)F)N1CCC2(CCCN2C(=O)C2(c3ncc(C4CC4)cn3)CC2)CC1 [Example 33, 1,1,1,3,3,3-Hexafluoropropan-2-yl 1-(1-(5-cyclopropylpyrimidin-2-yl)cyclopropane-1-carbonyl)-1,8-diazaspiro[4.5]decane-8-carboxylate] | > 75% | – | > 75% | < 100 nM | – | –
22 | CC1(NC(=O)c2cn3c(n2)CN(C(=O)C2(F)CC2)CC3)CCN(C(=O)OC(C(F)(F)F)C(F)(F)F)CC1 [Example 192, 1,1,1,3,3,3-Hexafluoropropan-2-yl 4-(7-(1-fluorocyclopropane-1-carbonyl)-5,6,7,8-tetrahydroimidazo[1,2-a]pyrazine-2-carboxamido)-4-methylpiperidine-1-carboxylate] | > 75% | – | > 75% | – | < 100 nM | –
23 | CC(C)n1cc(C(=O)N2CCCC23CCN(C(=O)OC(C(F)(F)F)C(F)(F)F)CC3)cn1 [Example 71, 1,1,1,3,3,3-Hexafluoropropan-2-yl 1-(1-isopropyl-1H-pyrazole-4-carbonyl)-1,8-diazaspiro[4.5] decane-8-carboxylate] | – | – | > 75% | – | < 100 nM | < 100 nM
24 | O=C(OC(C(F)(F)F)C(F)(F)F)N1CCC2(CCCN2C(=O)c2cnn3ccc(Cl)nc23)CC1 [Example 145, 1,1,1,3,3,3-Hexafluoropropan-2-yl 1-(5-chloropyrazolo[1,5-a]pyrimidine-3-carbonyl)-1,8-diazaspiro[4.5] decane-8-carboxylate] | > 75% | > 75% | > 75% | – | < 100 nM | –
